Columns and labels:
PK-2 cells [1] = assay: modified extracellular matrix-based 3D culture, MTT readout; assay type: cell-based, murine; settings: for chemoresistance to treatment: PK-2 compared with COLO-357, at the tested concentrations; for EGF/TGF-β1-induced growth stimulation: 1 nM EGF + 100 pM TGF-β1, inhibitor pre-incubated or added concomitantly
Experimental: (§1) Murine pancreatic tissue from euthanized animals was mechanically minced and digested with 2 mg/ml of Collagenase Type 4 (Worthington, Lakewood, N.J.) for 1 hour at 37° C. For ex vivo primary cell culture, 10,000 cells per well of 48-well plate were immediately plated in 3% Matrigel™ as described above, except for this modification: RPMI 1640 medium was supplemented with 20% FBS, 1× penicillin/streptomycin and 25 ng/mL amphotericin B (MP Biomedicals, LLC, Solon, Ohio). For secondary cell cultures from tumor lesions of mouse models, cancer (epithelial) cells were selected by carrying out several rounds of diluted plating in RPMI 1640 medium, with a gradual decrease concentration of FBS from 20% to 5%: PK-1 and RInk-1, as previously reported (Seeley et al. 2009. Cancer Res. 69:422-430), or after subcutaneous passage in nude mice (PK-2 and RInk-2). Experiments were conducted with epithelial cells within less than 20 passages.

PK-1 and PK-2 cells = assay: modified extracellular matrix-based 3D culture; assay type: cell-based, murine; settings: kinase inhibitor present
Experimental: as §1

COLO-357 cells [2] = settings: for EGF/TGF-β1-induced growth stimulation: 1 nM EGF + 100 pM TGF-β1, inhibitor pre-incubated or added concomitantly
Experimental: An equal volume of cell suspension and ice-chilled 6% Matrigel™ (BD biosciences, San Jose, Calif.) in complete medium (RPMI 1640 supplemented with 5% FBS and 1× penicillin/streptomycin) were mixed and dispensed at: 5-15×10^3 cells in 1000 μl per well of 12-well plates or 3-10×10^3 cells in 200 μl per well of 48-well plates on top of a solidified 1% noble agar layer (Difco, Sparks, Md.). Ice-chilled 3% Matrigel™ in complete medium was used to replenish medium every 4 days and/or to administer compounds.
After 4 hours of staining with 2.5 mg/ml of 3-(4,5-Dimethylthiazol-2-yl)-2,5-diphenyltetrazolium bromide (MTT; Sigma) in PBS, plates were scanned and images were stored as high resolution (1200 dpi) grayscale TIFF files. Signal intensity and density was quantified using Image-Pro Plus (Media Cybernetics, Bethesda, Md.).

PK; p16/p19Δ/Δ cells = assay: ex vivo primary cell 3D culture of PDAC mouse model tumor cells; assay type: cell-based; settings: p16/p19Δ/Δ tumor-derived cells
Experimental: (§2) To assess tissue response to different chemotherapeutic treatments, tumor tissues were digested with collagenase to obtain single cell suspensions for accurate cell counting and equal cell seeding in replica experimental wells.
as §1

PK; p53Δ/Δ cells = assay: as above; assay type: cell-based; settings: p53Δ/Δ tumor-derived cells
Experimental: as §2, §1

PDAC patients = settings: cited from earlier work
[3] = system: ASPC-1, BxPC3 and T3M4 cells; assay: modified extracellular matrix-based 3D culture, growth factor stimulation; assay type: cell-based, human
Experimental: (§3) To determine how pancreatic cancer cells would integrate potential interactions between EGF and TGF-β1 signals, cells were treated four days after seeding in 3% Matrigel™ with TGF-β1 at a final concentration of 100 pM and/or EGF at 1 nM. […] The growth of ASPC-1, BxPC3 and T3M4 was not affected by TGFB-β1 treatment.

[4] = system: PK-1, PK-2 and RInk-2 cells; assay: as above; assay type: cell-based, murine
Experimental: as §3, §1

COLO-357 cells [5] = assay: anchorage-independent growth in soft agar culture; assay type: cell-based, human; settings: COLO-357, soft agar
COLO-357 cells [6] = assay: culture on tissue culture-treated plastic plates, morphology and immunostaining; assay type: cell-based, human
Description: (§4) To further investigate the effects of extracellular matrix components on integration of growth factor signals in both human and murine pancreatic cancer cells, cellular responses were compared on conventional tissue culture-treated plastic plates and in 3% Matrigel™. […] Thus, cells loosened their tightly packed cobble-stone like arrangement, became more motile and acquired an elongated fibroblast-like shape. […] This effect was not observed in T3M4 cells, whereas the distribution of the cytoskeleton protein tubulin (control marker) was uniform across all epithelial structures. Increased vimentin expression was not observed in these cellular structures.
(§5) Cells cultured in 3% Matrigel™ were collected 4 days after treatment on a 40 μm sieve mesh using chilled PBS to loosen Matrigel™ matrix, fixed in 10% formalin for 1 hour and coated with melted 1% noble agar. Agar plugs were fixed for up to 4 hours in formalin and paraffin-embedded in fully-automated Shandon Pathcentre instrument as described previously (Sempere et al. 2010. Clin Cancer Res. 16:4246-4255). For freshly fixed cell assays, cells were seeded at 2-5×10^3 per well on 48-well plates, treated after 24 hours and collected 48 hours after treatments by rinsing with chilled PBS and fixed in 10% formalin for 30 minutes. Four μm sections of cellular structures in paraffin-embedded or freshly fixed cells were immunostained using antibody conditions and sequential tyramide signal amplification reactions as previously described (Sempere et al. 2010. Clin Cancer Res. 16:4246-4255).

PK-2 cells [7] = assay: as above; assay type: cell-based, murine
Description: as §4, §5

[8] = system: BT474 breast cancer cells; settings: 3D culture, trastuzumab resistance; cited from earlier work

With `N#CC(=C(/N)Sc1ccccc1N)/C(C#N)=C(\N)Sc1ccccc1N` [U0126] as the molecule, how does the “protective effects of EGF/TGF-β1 against gemcitabine and cisplatin” value (PK-2 cells [1]; PK-2, 3D culture, concomitant inhibitor treatment) read?
The value was “markedly effective only in PK-2 cells”.

And the “stimulatory growth effects of EGF/TGF-β1” value (PK-1 and PK-2 cells)?
The value was “moderate effect”.

And the EGF/TGF-β1-induced growth stimulation (COLO-357 cells [2]; COLO-357, 3D culture)?
The EGF/TGF-β1-induced growth stimulation was “mild inhibitory effect”.

For `N.N.[Cl][Pt][Cl]` [cisplatin, cis-diamminedichloroplatinum], which chemoresistance to treatment (PK-2 cells [1]) is on record?
Its chemoresistance to treatment is “more chemoresistant”.

What about the “number and size of cellular structures in 3D culture” value (PK; p16/p19Δ/Δ cells) of the same molecule?
Its value is “reduced the number and size of cellular structures”.

What about the “number and size of cellular structures in 3D culture” value (PK; p53Δ/Δ cells) of the same molecule?
The value was “reduced the number and size of cellular structures”.

Which “stimulatory growth effects of EGF/TGF-β1” value (PK-1 and PK-2 cells) does the source give for `C[S+]([O-])c1ccc(-c2nc(-c3ccncc3)c(-c3ccc(F)cc3)[nH]2)cc1` (centres unmarked) [SB203580] here?
Its value is “mild effect”.

And the EGF/TGF-β1-induced growth stimulation (COLO-357 cells [2]; COLO-357, 3D culture)?
The EGF/TGF-β1-induced growth stimulation was “mild inhibitory effect”.

With `C#Cc1cccc(Nc2ncnc3cc(OCCOC)c(OCCOC)cc23)c1` [erlotinib] as the molecule, how does the EGF/TGF-β1-induced growth stimulation (PK-2 cells [1]; PK-2, 3D culture) read?
Its EGF/TGF-β1-induced growth stimulation is “significantly decreased”.

What about the EGF/TGF-β1-induced growth stimulation (COLO-357 cells [2]; COLO-357, 3D culture) of the same molecule?
The EGF/TGF-β1-induced growth stimulation was “significantly decreased”.

And the “additional increase in survival” value (PDAC patients; addition to gemcitabine as first-line PDAC treatment)?
The value was 12 days.

With “TGF-β1: transforming growth factor-β isoform 1, used at 100 pM” as the molecule, how does the E-cadherin immunostaining (PK-2 cells [1]; PK-2, 3D culture) read?
Its E-cadherin immunostaining is “reduced membranous localization of E-cadherin”.

What about the “lowest concentration at which morphological changes were observed” value (PK-2 cells [1]; PK-2, 3D culture) of the same molecule?
Its value is 1 pM.

What about the growth ([3]; 100 pM TGF-β1) of the same molecule?
The growth was “not affected”.

And the “proliferative actions of EGF” value ([3]; TGF-β1 added to EGF)?
Its value is “did not affect”.

What about the morphology ([4]; 100 pM TGF-β1) of the same molecule?
The morphology was “profound morphological changes”.

What about the growth ([4]; growth factor treatment four days after seeding) of the same molecule?
Its growth is “dramatically enhanced the growth”.

And the “size and number of colonies” value (COLO-357 cells [5])?
Its value is “decreased the size and number of colonies”.

What about the “growth promoting effects of EGF” value (COLO-357 cells [5]; TGF-β1 added to EGF) of the same molecule?
Its value is “antagonized”.

What about the “E-cadherin and vimentin immunostaining” value (COLO-357 cells [6]; COLO-357, on plastic, after TGF-β1 treatment) of the same molecule?
The value was “loss of membranous E-cadherin (epithelial marker) and upregulation of intermediate filament vimentin (mesenchymal marker)”.

What about the “TGF-β1 concentration giving limited morphological changes” value (COLO-357 cells [6]; COLO-357, plastic culture) of the same molecule?
The value was 20 pM.

What about the “TGF-β1 concentration giving overt morphological changes” value (COLO-357 cells [6]; COLO-357, plastic culture) of the same molecule?
Its value is 200 pM.

What about the “E-cadherin and vimentin immunostaining” value (PK-2 cells [7]; PK-2, on plastic, after TGF-β1 treatment) of the same molecule?
The value was “loss of membranous E-cadherin (epithelial marker) and upregulation of intermediate filament vimentin (mesenchymal marker)”.

What about the “TGF-β1 concentration giving limited morphological changes” value (PK-2 cells [7]; PK-2, plastic culture) of the same molecule?
The value was 20 pM.

What about the “TGF-β1 concentration giving overt morphological changes” value (PK-2 cells [7]; PK-2, plastic culture) of the same molecule?
Its value is 200 pM.

And the E-cadherin immunostaining (COLO-357 cells [2]; COLO-357, 3D culture)?
The E-cadherin immunostaining was “reduced membranous localization of E-cadherin”.

And the “lowest concentration at which morphological changes were observed” value (COLO-357 cells [2]; COLO-357, 3D culture)?
Its value is 1 pM.

And the morphology (COLO-357 cells [2]; COLO-357, 3D culture, 100 pM TGF-β1)?
Its morphology is “profound morphological changes”.

And the “growth stimulatory effects of EGF” value (COLO-357 cells [2]; COLO-357, 3D culture, TGF-β1 added to EGF)?
Its value is “greatly enhanced”.

And the growth (COLO-357 cells [2]; COLO-357, 3D culture, growth factor treatment)?
Its growth is “mild growth stimulatory effects”.

And the “size of cellular structures under cisplatin or gemcitabine challenge” value (COLO-357 cells [2]; COLO-357, growth factor-treated, after 4 and 8 days of incubation)?
The value was greater than 5 cells.

Which results are given for `Nc1ccn([C@@H]2O[C@H](CO)[C@@H](O)C2(F)F)c(=O)n1` [gemcitabine]?
chemoresistance to treatment (PK-2 cells [1]): more chemoresistant; number and size of cellular structures in 3D culture (PK; p16/p19Δ/Δ cells): reduced the number and size of cellular structures; number and size of cellular structures in 3D culture (PK; p53Δ/Δ cells): reduced the number and size of cellular structures; cytotoxic effect (COLO-357 cells [2]; human, 4 days, 10 nM): killed most COLO-357 cells; prolongation of life (PDAC patients; PDAC): about 8 weeks

Which EGF/TGF-β1-induced growth stimulation (PK-2 cells [1]; PK-2, 3D culture) does the source give for `NC(=O)c1ccc(-c2nc(-c3ccc4c(c3)OCO4)c(-c3ccccn3)[nH]2)cc1` [SB431542] here?
Its EGF/TGF-β1-induced growth stimulation is “significantly decreased”.

And the “EGF/TGF-β1-induced growth stimulation, late inhibitor addition” value (PK-2 cells [1]; PK-2, inhibitor added 4 days following incubation with EGF/TGF-β1)?
The value was “halted further growth stimulation”.

And the EGF/TGF-β1-induced growth stimulation (COLO-357 cells [2]; COLO-357, 3D culture)?
Its EGF/TGF-β1-induced growth stimulation is “significantly decreased”.

And the “EGF/TGF-β1-induced growth stimulation, late inhibitor addition” value (COLO-357 cells [2]; COLO-357, inhibitor added 4 days following incubation with EGF/TGF-β1)?
The value was “halted further growth stimulation”.

With `CC(C)(C)n1nc(-c2ccc(Cl)cc2)c2c(N)ncnc21` [PP2] as the molecule, how does the “activation of PI3K/AKT pathway and chemoresistant effects of TGF-β” value [8] read?
Its value is “prevented activation of PI3K/AKT pathway and disrupted chemoresistant effects of TGF-β”.
